{
  "source": "patent US20030044413A1",
  "about": "“Methods of limiting apoptosis of cells” (Regents of the University of Minnesota, priority 1998, published 2003)",
  "key": {"[1]": {"tested_on": "astrocytes", "assay": "Unconjugated bilirubin-induced apoptosis in astrocytes", "type": "cell-based, rat", "settings": "for apoptosis, increase over control values: 4 hours"}, "[2]": {"tested_on": "rat primary hepatocytes", "assay": "FACS analysis of ΔΨm and ROS, rat primary hepatocytes", "type": "cell-based", "settings": "1% ETOH, 4 h, hepatocytes", "method": "A ΔΨm and ROS measurement. ΔΨm and ROS production were measured by FACScan (Becton Dickinson) analysis. Freshly isolated rat hepatocytes were cultured for 3 h as described above and then incubated with William's E medium supplemented with either 100 μM DCA, 100 μM UDCA, equal molar amounts of both, or no bile acid (control), for 6 h. Rat hepatocytes were also cultured with either 1% ethanol, 100 μM UDCA, ethanol+UDCA, or no addition (control) for 4 h. HuH-7 cells, Hep G2 cells, and human osteogenic sarcoma Saos-2 cells were incubated with TGF-β1, anti-Fas antibody or okadaic acid, respectively, for 48 h under the same conditions as outlined above. For combination studies, cells were pretreated with UDCA or hyodeoxycholic acid for 60 min prior to addition of DCA, ethanol, TGF-β1, anti-Fas antibody or okadaic acid. Aliquots of 1.0×10^6 cells were incubated for 15 min at 37° C. with 50 nM 3,3′-dihexyloxacarbocyanine iodide [DiOC6(3)], 2 μM dihydroethidium (HE), or 5 μM 2′,7′-dichlorofluorescin diacetate (H2DCFDA; Molecular Probes, Inc. Eugene, Oreg.) and analyzed by cytofluorometry (Cathcart et al., Anal. Biochem., 134, 111-116 (1983); Zamzami et al., J. Exp. Med., 181, 1661-1672 (1 995); Carter et al., J. Leukocyte Biol., 55, 253-258 (1994)).\nRat primary hepatocytes were incubated with 100 μM DCA and 1% ETOH for 6 h and 4 h, respectively; HuH-7 cells with 1 nM TGF-β1 for 48 h; Hep G2 cells with 0.5 μg/ml anti-Fas antibody (CH-11) for 48 h, and Saos-2 cells with 50 nM okadaic acid (OA) for 48 h. In each combination group, cells were pretreated with 100 μM UDCA alone for 60 min prior to addition of the inducer. Aliquots of 1.0×10^6 cells were incubated for 15 min at 37° C. with 5 μM 2′,7′-dichlorofluorescin diacetate (H2DCFDA) and analyzed by cytofluorometry."}, "[3]": {"tested_on": "primary rat hepatocytes", "assay": "Ethanol-induced apoptosis, Hoechst staining, primary rat hepatocytes", "type": "cell-based", "settings": "0.5% ethanol", "method": "(§1) Incubation of cells with ethanol, TGF-β1, anti-Fas antibody or okadaic acid. Freshly isolated rat hepatocytes were cultured for 3 h as described above and then incubated with William's E medium supplemented with either 0.5% ethanol, 50 μM UDCA, ethanol plus UDCA, or no addition (control) for 2 h and 4 h. HuH-7 cells were incubated with Dulbecco's medium supplemented with either 1 nM TGF-β1 (R & D Systems, Minneapolis, Minn.), 100 μM UDCA, TGF-β1+UDCA, or no addition (control) for 24 h, 48 h, and 72 h. Hep G2 cells were incubated with Dulbecco's medium supplemented with either 0.5 μg/ml of anti-Fas antibody CH-11 (Upstate Biotechnology, Inc., Lake Placid, N.Y.), 100 μM UDCA, CH-11+UDCA, or no addition for 48 h. Both HuH-7 cells and human osteogenic sarcoma Saos-2 cells were cultured in Dulbecco's medium supplemented with either 50 nM okadaic acid (Boehringer Mannheim Biochemicals, Inc, Indianapolis, Ind.), 100 μM UDCA, okadaic acid+UDCA, or no addition for 48 h. In all the combination groups, cells were pretreated with UDCA alone for 60 min prior to addition of ethanol, TGF-β1, anti-Fas antibody or okadaic acid.\n(§2) Morphological evaluation of apoptosis. Morphology was performed as described previously (Oberhammer et al., Proc. Natl. Acad. Sci. USA 89, 5408-5412 (1992)). Briefly, after fixation (with 4% formaldehyde in PBS, pH 7.4, for 10 min at room temperature), the cells were incubated with Hoechst dye 33258 (Sigma Chemical Co.) at 5 μg/ml in PBS for 5 min, washed with PBS and mounted with PBS:glycerol (3:1, v/v). Fluorescence was visualized with a Zeiss standard fluorescence microscope (Carl Zeiss, Inc., Thornwood, N.Y.). Photographs were taken with Kodak Ektar-1000 film (Eastman Kodak Co.). Stained nuclei were scored by blind analysis and categorized according to the condensation and staining characteristics of chromatin. Normal nuclei were identified as noncondensed chromatin dispersed over the entire nucleus. Apoptotic nuclei were identified by condensed chromatin, contiguous to the nuclear membrane, as well as nuclear fragmentation of condensed chromatin. Three fields per dish of approximately 500 nuclei were counted; mean values are expressed as the percent of apoptotic nuclei."}, "[4]": {"tested_on": "isolated rat liver mitochondria", "assay": "MPT spectrophotometric assay (mitochondrial swelling)", "settings": "for effect on DCA-induced MPT / mitochondrial swelling: preincubation (500 μM bile acid or cyclosporine A) before DCA", "method": "Isolation of mitochondria and MPT assays. Low calcium liver mitochondria were isolated from male 200-250 g Sprague-Dawley rats by density gradient centrifugation as previously published (Botla et al., J. Pharmacol. Exp. Ther., 272, 930-938 (1995); Walajtys-Rhode et al., J. Biol. Chem., 267, 370-379 (1992); and Sokol et al., Gastroenterology, 99, 1061-1071 (1990)). The mitochondrial fraction was resuspended in 30 ml of wash buffer containing 0.1 M KCl, 5 mM 3-(N-morpholino)-propane sulfonic acid (MOPS), and 1 mM EGTA, at pH 7.4 and centrifuged at 7,000×g for 10 min at 4° C. A final wash was carried out in chelex-100-treated buffer (Bio-Rad Laboratories, Hercules, Calif.) containing no EGTA. The resulting pellet was suspended in 4 ml of chelex--100-treated buffer containing 125 mM sucrose, 5 mM HEPES, 50 mM KCl and 2 mM KH2PO4. The usual yield of mitochondria was approximately 25 mg of protein per gram of liver tissue. Mitochondrial purity was established as previously described (Botla et al., J. Pharmacol. Exp. Ther., 272, 930-938 (1995)). Protein concentrations were determined using the Bio-Rad protein assay kit as specified by the manufacturer.\nMPT was measured spectrophotometrically as described previously (Botla et al., J. Pharmacol. Exp. Ther., 272, 930-938 (1995); Pastorino et al., J. Biol. Chem., 268, 13791-13798 (1993)), during 10 min incubations at 25° C. using mitochondria (1 mg of protein/ml) suspended in 3 ml of a chelex-100-treated buffer containing 0.1 M NaCl, 10 mM MOPS, pH 7.4. Swelling was monitored at 540 nm in a Beckman DU 64 spectrophotometer. Basal values of mitochondria absorbance were measured for 5 min, and the optical density was monitored another 5 min after addition of 200 μM DCA or 80 μM phenylarsine oxide (PhAsO; Sigma Chemical Co.). For coincubation studies, mitochondria were preincubated with 500 μM UDCA or hyodeoxycholic acid for 5 min at 25° C. prior to the assay.\nSpectrophotometric and Fluorimetric Assays of MPT. The MPT was assessed using a spectrophotometric assay measuring high amplitude rapid changes in mitochondrial volume, and a fluorimetric assay quantitating the release of calcein from calcein-loaded mitochondria. The MPT was measured spectrophotometrically as previously described (Pastorino, J. Biol. Chem., 268, 13791-13798 (1993); Botla et al., J. Pharmacol. Exp. Ther., 272, 930-938 (1995)). Briefly, mitochondria (3 mg protein) were incubated in 3 ml of chelex-100-treated respiration buffer (0.1 M NaCl, 10 mM MOPS, pH 7.4) for 10 min at 25° C. and monitored at 540 nm in a Beckman DU 64 spectrophotometer. Basal values of mitochondrial absorbance were measured for 5 min, and the optical density was monitored for an additional 5 min after addition of increasing concentrations of DCA (50-200 μM) or 80 μM phenylarsine oxide (PhAsO; Sigma Chemical Co., St. Louis, Mo.). For the coincubation studies, mitochondria were preincubated with UDCA (100-500 μM), or 500 μM hyodeoxycholic acid (HDCA; Sigma Chemical Co.) for 5 min at 25° C. prior to initiation of the assay.\nMeasurement of MPT and determination of cytochrome c content in supernatants and mitochondrial pellets after MPT. The MPT was assessed using a spectrophotometric assay measuring high amplitude rapid changes in mitochondria volume. Mitochondria (1 mg protein) were incubated in 1 ml of chelex-100-treated respiration buffer (0.1 M NaCl, 10 mM MOPS, pH 7.4) for 10 min at 25° C. and swelling was monitored at 540 nm in a Beckman DU 64 spectrophotometer. Malate and glutamate (1 mM) were added to initiate respiration, and 3 min later rotenone (5 μM), an inhibitor of complex I of the respiratory chain, was also added to the supension. Basal values of mitochondria absorbance were measured for 5 min, and the optical density was monitored for an additional 5 min after addition 200 μM DCA or 80 μM phenylarsine oxide (PhAsO; Sigma Chemical Co.). […]"}, "[5]": {"tested_on": "HuH-7 cells", "assay": "TGF-β1-induced apoptosis, Hoechst staining, HuH-7 cells", "type": "cell-based, human", "settings": "1 nM TGF-β1, 100 μM bile acid, 72 h", "method": "as §1\nHuH-7 cells were treated with 1 nM TGF-β1, 100 μM of either hyodeoxycholic acid, taurocholic acid, tauroursodeoxycholic acid (Sigma Chemical Co.) or glycoursodeoxycholic acid (Steraloids Inc., Wilton, N.H.), or a combination of TGF-β1 plus the individual bile acids for 72 h. HeLa and Cos-7 cells were incubated with 50 nM okadaic acid, 100 μM of either tauroursodeoxycholic acid or glycoursodeoxycholic acid, or a combination of okadaic acid plus the individual bile acids for 24 h. In the combination groups, cells were pretreated with the bile acid alone for 60 min prior to incuation with TGF-β1 or okadaic acid. In all studies, the medium was gently removed at the indicated times and scored for nonviable cells. The attached cells were fixed for morphologic evaluation of apoptosis.\nas §2, with “Morphology was performed as described previously (Oberhammer et al., Proc. Natl. Acad. Sci. USA 89, 5408-5412 (1992)). Briefly, after fixation (with 4% formaldehyde in PBS, pH 7.4, for 10 min at room temperature), the cells were incubated with Hoechst dye 33258 (Sigma Chemical Co.) at 5 μg/ml in PBS for 5 min, washed with PBS and mounted with PBS:glycerol (3:1, v/v).” left out"}, "[6]": {"tested_on": "cytochrome c", "assay": "Cytochrome c release from isolated mitochondria after MPT", "set-up": "species or system rat", "settings": "added to isolated mitochondria before DCA", "description": "Mitochondria isolation. […] In short, animals were sacrificed by exsanguination under ether anesthesia and the livers removed and rinsed in normal saline. Approximately 10 g of minced liver was homogenized at a speed of 800 rpm using 6 complete up and down strokes with a speed controlled mechanical skill drill and a teflon pestle (Tri-R Model K41, Tri-R Instruments, Rockville Center, N.Y.) in an ice-cold solution of 70 mM sucrose, 220 mM mannitol, 1 mM EGTA and 10 mM HEPES, pH 7.4 as a 10% (wt/vol) homogenate. The homogenate was centrifuged at 600×g for 10 min at 4° C. in an SS-34 rotor in a Sorvall RC5C centrifuge (Sorvall Instruments, Newtown, Conn.), and the postnuclear supernatant was centrifuged at 7,000×g for 10 min at 4° C. […] The pellet was resuspended in 2 mL of homogenate buffer, and 1 mL of the resuspended pellet was carefully layered onto a 35-mL self-generating gradient containing 0.25 M sucrose, 1 mM EGTA and percoll (Pharmacia Fine Chemicals, Piscataway, N.J.) (75:25, vol/vol). The mitochondria were purified by centrifugation at 43,000×g for 30 min at 4° C. using a Beckman Ti60 rotor and a Beckman ultracentrifuge model L8-55 (Beckman Instruments, Inc., Schaumburg, Ill.). The clear supernatant solution removed and the lower turbid layer was resuspended in 30 mL of wash buffer containing 0.1 M KCl, 5 mM 3-(N-morpholino)-propane sulfonic acid (MOPS), and 1 mM EGTA, at pH 7.4 and centrifuged at 7,000×g for 10 min at 4° C. The resulting mitochondria pellet was washed in wash buffer two times. A final wash was carried out in chelex-100-treated buffer (Bio-Rad Laboratories, Richmond, Va.; 200-400 mesh, potassium form) without EGTA. The pellet was suspended in 4 mL of chelex-100-treated resuspension buffer containing 125 mM sucrose, 50 mM KCl, 5 mM HEPES, and 2 mM KH2PO4. The usual yield of mitochondria was approximately 25 mg of protein per gram of liver tissue. Mitochondria were used for experiments within 3 h of isolation. Aliquots were removed for examining the purity of the mitochondria preparation.\nMeasurement of MPT and determination of cytochrome c content in supernatants and mitochondrial pellets after MPT. The MPT was assessed using a spectrophotometric assay measuring high amplitude rapid changes in mitochondria volume. Mitochondria (1 mg protein) were incubated in 1 ml of chelex-100-treated respiration buffer (0.1 M NaCl, 10 mM MOPS, pH 7.4) for 10 min at 25° C. and swelling was monitored at 540 nm in a Beckman DU 64 spectrophotometer. […] Basal values of mitochondria absorbance were measured for 5 min, and the optical density was monitored for an additional 5 min after addition 200 μM DCA or 80 μM phenylarsine oxide (PhAsO; Sigma Chemical Co.). […]"}, "[7]": {"tested_on": "stroke injury", "assay": "Stroke injury in a rat model", "type": "in vivo", "settings": "preliminary results"}},
  "note": "Where “and” joins values, the source holds several entries; their conditions need not be identical. Identical values can stand only once. Entries after “also recorded” stand apart in the source; their conditions may differ.",
  "data": [
    {"compound": "C=CC1=C(C)/C(=C/c2[nH]c(Cc3[nH]c(/C=C4\\NC(=O)C(C)=C4C=C)c(C)c3CCC(=O)O)c(CCC(=O)O)c2C)NC1=O", "note": "[UCB, unconjugated bilirubin]", "values": [
      {"measurement": "apoptosis, increase over control values", "setting": "[1]; 17 μM UCB", "value": "about 6 fold"},
      {"measurement": "apoptosis, increase over control values", "setting": "[1]; 85.5 μM UCB", "value": "about 11 fold"},
      {"measurement": "percentage of apoptotic cells", "setting": "[1]; 85.5 μM UCB, 22 hours", "value": "about 48%"},
      {"measurement": "cell viability", "setting": "[1]; UCB treatment", "value": "concentration and time dependent decrease in cell viability"}
    ]},
    {"compound": "CCO", "note": "[ethanol]", "values": [
      {"measurement": "Peroxides Production (%) Inducer", "setting": "[2]", "value": "17.9 ± 5.4", "unit": "%"},
      {"measurement": "increase in apoptosis over control values", "setting": "[3]; 2 h", "value": 10, "unit": "fold"},
      {"measurement": "increase in apoptosis", "setting": "[3]; time not stated (summary)", "value": 12, "unit": "fold"},
      {"measurement": "mitochondrial swelling with the substance alone", "setting": "[4]; substance alone added to isolated mitochondria", "value": "did not induce mitochondria swelling"}
    ]},
    {"compound": "C[C@H](CCC(=O)NCC(=O)O)[C@H]1CC[C@H]2[C@@H]3[C@@H](O)C[C@@H]4C[C@H](O)CC[C@]4(C)[C@H]3CC[C@]12C", "note": "[glycoursodeoxycholic acid]", "values": [
      {"measurement": "effect on DCA-induced MPT / mitochondrial swelling", "setting": "[4]", "value": "Inhibition of deoxycholic acid-induced MPT"},
      {"measurement": "decrease of TGF-β1 apoptosis", "setting": "[5]", "value": "37.5±5.1", "unit": "%"},
      {"measurement": "effect on deoxycholic acid-induced cytochrome c release", "setting": "[6]", "value": "Inhibition of deoxycholic acid-induced MPT and cytochrome c release were also observed"}
    ]},
    {"compound": "C[C@H](CCC(=O)NCCS(=O)(=O)O)[C@H]1CC[C@H]2[C@@H]3[C@H](O)C[C@@H]4C[C@H](O)CC[C@]4(C)[C@H]3C[C@H](O)[C@]12C", "note": "[taurocholic acid]", "values": [
      {"measurement": "inhibition of TGF-β1-induced apoptosis", "setting": "[5]", "value": "did not; also recorded: neither hyodeoxycholic acid nor taurocholic acid showed inhibition"}
    ]},
    {"compound": "C[C@H](CCC(=O)NCCS(=O)(=O)O)[C@H]1CC[C@H]2[C@@H]3[C@@H](O)C[C@@H]4C[C@H](O)CC[C@]4(C)[C@H]3CC[C@]12C", "note": "[tauroursodeoxycholic acid]", "values": [
      {"measurement": "effect on DCA-induced MPT / mitochondrial swelling", "setting": "[4]", "value": "Inhibition of deoxycholic acid-induced MPT"},
      {"measurement": "decrease of TGF-β1 apoptosis", "setting": "[5]", "value": "45.8±7.9", "unit": "%"},
      {"measurement": "effect on deoxycholic acid-induced cytochrome c release", "setting": "[6]", "value": "Inhibition of deoxycholic acid-induced MPT and cytochrome c release were also observed"},
      {"measurement": "mitochondria viability following a stroke injury", "setting": "[7]", "value": "improvement in mitochondria viability"},
      {"measurement": "decrease of the area of stroke damage", "setting": "[7]; pretreatment, compared to control animals", "value": "up to 50%"}
    ]},
    {"compound": "cyclosporine A", "values": [
      {"measurement": "inhibition of DCA-induced MPT (mitochondrial swelling)", "setting": "[4]; 200 μM DCA, pretreatment 500 μM UDCA or 5 μM cyclosporine A", "value": "> 45% and 45.8±5.4%"},
      {"measurement": "effect on DCA-induced MPT / mitochondrial swelling", "setting": "[4]", "value": "reduced deoxycholic acid-induced mitochondria swelling"}
    ]}
  ]
}
